Experimental findings from ChEMBL document CHEMBL1151015, “Novel frameworks for trifluoromethyl ketone and phosphonate tsa inhibitors of type II PLA2” (Bioorg Med Chem Lett, 1997) are described below.

Data set [1] deals with T1, Cytosolic phospholipase A2 (Homo sapiens) (UniProt P47712).
T1 sequence (whole entry): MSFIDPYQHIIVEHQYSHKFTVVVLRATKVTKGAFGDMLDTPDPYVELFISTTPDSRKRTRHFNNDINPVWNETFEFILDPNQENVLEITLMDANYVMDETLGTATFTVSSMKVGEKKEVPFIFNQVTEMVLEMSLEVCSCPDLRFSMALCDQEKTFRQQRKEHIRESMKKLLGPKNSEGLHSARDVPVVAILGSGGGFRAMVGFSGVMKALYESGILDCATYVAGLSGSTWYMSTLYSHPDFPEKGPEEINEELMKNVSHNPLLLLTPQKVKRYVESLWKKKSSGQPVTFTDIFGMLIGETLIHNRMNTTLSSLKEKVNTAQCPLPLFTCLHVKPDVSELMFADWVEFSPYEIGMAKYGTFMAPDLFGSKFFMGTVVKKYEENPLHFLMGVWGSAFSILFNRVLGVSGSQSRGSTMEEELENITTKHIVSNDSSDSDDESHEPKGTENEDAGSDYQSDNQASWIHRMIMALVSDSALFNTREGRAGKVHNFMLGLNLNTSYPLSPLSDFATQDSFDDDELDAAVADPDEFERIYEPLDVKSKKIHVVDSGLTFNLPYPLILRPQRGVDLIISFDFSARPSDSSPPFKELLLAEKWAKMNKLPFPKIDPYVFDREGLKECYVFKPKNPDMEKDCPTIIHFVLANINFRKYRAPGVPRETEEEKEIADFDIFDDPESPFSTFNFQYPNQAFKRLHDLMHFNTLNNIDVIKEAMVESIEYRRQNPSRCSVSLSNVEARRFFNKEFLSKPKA
The data set is described as follows: Compound was measured for the inhibitory activity against Cytosolic phospholipase A2 (c-PLA2) at 100 uM concentration. More on the design: scale not given: the % may be the effect or the level left.

The species entered for data set [2] is Homo sapiens. The data set is described as follows: Compound was measured for the inhibitory activity against LTC4 formation in human monocyte at 30 uM concentration. Format: functional. More on the design: scale not given: the % may be the effect or the level left.
Data set [3] is filed under the species Homo sapiens. The data set is described as follows: Compound was measured for the inhibitory activity against LTC4 formation in human monocyte; not determined; not cell permeable. Type of data set: functional.
The nature of data set [4]: pH dependence of compound; weak. Format: ADME.
The species entered for data set [5] is Homo sapiens. The data set is described as follows: Compound was measured for the inhibitory activity against LTB4 formation in human whole blood at 30 uM concentration. Type of data set: functional. More on the design: scale not given: the % may be the effect or the level left.
Data set [6] can be described thus: Dissociation constant of compound. Type of data set: physicochemical.
Data set [7] has as its target T1, Cytosolic phospholipase A2 (Homo sapiens). The data set is described as follows: Compound was measured for the inhibitory activity against Cytosolic phospholipase A 2 (c-PLA2) at 30 uM concentration. More on the design: scale not given: the % may be the effect or the level left.
For data set [8], the species on record is Homo sapiens. In words: Compound was measured for the inhibitory activity against LTC4 formation in human monocyte; not cell permeable. Format: functional.

Take `O=C(O)c1ccc2cccc(C(=O)C(F)(F)F)c2c1`: the Activity in data set [1] was -36%; in the data set listed under Homo sapiens [2] it was -76%.

Take `CCCCCCCCCCCCCCCCCCOP(=O)(O)c1cccc2ccc(C(=O)O)cc12`: in the data set filed under Homo sapiens [3], the Activity result is “not cell permeable”. Besides, the pH dependence result in data set [4] is reported as “weak”.

Regarding `CCCCCCCCCCOP(=O)(O)c1cc(OCc2ccccc2)ccc1/C=C/C(=O)O`, the Activity in the data set filed under Homo sapiens [5] is listed as -90%; in the data set filed under Homo sapiens [2], -44%. This molecule gave a pKa in data set [6] of 7.1.

`CCCCCCCOc1ccc(C(=O)O)cc1CC(=O)C(F)(F)F`: the figures for the Activity (in data set [7]; in the data set listed under Homo sapiens [8]) were -40% and “not cell permeable”, respectively. The pKa in data set [6] turned out to be 7.1.
